Values belong to the compound of their own block, whether it stands above or below them.
Legend:
[1] = biological target: Tyrosine-protein kinase Fyn (Homo sapiens) (UniProt P06241); assay: Selectivity interaction (Upstate Kinase Profiler service (Millipore)) EUB0000056c FYN; conditions: at 1 µM
[2] = biological target: Ribosomal protein S6 kinase alpha-3 (Homo sapiens, UniProt P51812); assay: Selectivity interaction (ActivX KiNativ screen (kinase selectivity in THP-1 cell lysates)) EUB0000639a RPS6KA3; format: subcellular; conditions: lysate, at 5 µM
[3] = biological target: Histone-lysine N-methyltransferase 2C (Homo sapiens) (UniProt Q8NEZ4); assay: Selectivity interaction (Methyltransferase screen (radiometric assays, panel of 8 PRMTs, 21 protein lysine methyltransferases, 3 DNA methyltransferases, and one RNA methyltransferase)) EUB0000271b MLL3
Histone-lysine N-methyltransferase 2C (Homo sapiens), sequence (Q8NEZ4 whole entry): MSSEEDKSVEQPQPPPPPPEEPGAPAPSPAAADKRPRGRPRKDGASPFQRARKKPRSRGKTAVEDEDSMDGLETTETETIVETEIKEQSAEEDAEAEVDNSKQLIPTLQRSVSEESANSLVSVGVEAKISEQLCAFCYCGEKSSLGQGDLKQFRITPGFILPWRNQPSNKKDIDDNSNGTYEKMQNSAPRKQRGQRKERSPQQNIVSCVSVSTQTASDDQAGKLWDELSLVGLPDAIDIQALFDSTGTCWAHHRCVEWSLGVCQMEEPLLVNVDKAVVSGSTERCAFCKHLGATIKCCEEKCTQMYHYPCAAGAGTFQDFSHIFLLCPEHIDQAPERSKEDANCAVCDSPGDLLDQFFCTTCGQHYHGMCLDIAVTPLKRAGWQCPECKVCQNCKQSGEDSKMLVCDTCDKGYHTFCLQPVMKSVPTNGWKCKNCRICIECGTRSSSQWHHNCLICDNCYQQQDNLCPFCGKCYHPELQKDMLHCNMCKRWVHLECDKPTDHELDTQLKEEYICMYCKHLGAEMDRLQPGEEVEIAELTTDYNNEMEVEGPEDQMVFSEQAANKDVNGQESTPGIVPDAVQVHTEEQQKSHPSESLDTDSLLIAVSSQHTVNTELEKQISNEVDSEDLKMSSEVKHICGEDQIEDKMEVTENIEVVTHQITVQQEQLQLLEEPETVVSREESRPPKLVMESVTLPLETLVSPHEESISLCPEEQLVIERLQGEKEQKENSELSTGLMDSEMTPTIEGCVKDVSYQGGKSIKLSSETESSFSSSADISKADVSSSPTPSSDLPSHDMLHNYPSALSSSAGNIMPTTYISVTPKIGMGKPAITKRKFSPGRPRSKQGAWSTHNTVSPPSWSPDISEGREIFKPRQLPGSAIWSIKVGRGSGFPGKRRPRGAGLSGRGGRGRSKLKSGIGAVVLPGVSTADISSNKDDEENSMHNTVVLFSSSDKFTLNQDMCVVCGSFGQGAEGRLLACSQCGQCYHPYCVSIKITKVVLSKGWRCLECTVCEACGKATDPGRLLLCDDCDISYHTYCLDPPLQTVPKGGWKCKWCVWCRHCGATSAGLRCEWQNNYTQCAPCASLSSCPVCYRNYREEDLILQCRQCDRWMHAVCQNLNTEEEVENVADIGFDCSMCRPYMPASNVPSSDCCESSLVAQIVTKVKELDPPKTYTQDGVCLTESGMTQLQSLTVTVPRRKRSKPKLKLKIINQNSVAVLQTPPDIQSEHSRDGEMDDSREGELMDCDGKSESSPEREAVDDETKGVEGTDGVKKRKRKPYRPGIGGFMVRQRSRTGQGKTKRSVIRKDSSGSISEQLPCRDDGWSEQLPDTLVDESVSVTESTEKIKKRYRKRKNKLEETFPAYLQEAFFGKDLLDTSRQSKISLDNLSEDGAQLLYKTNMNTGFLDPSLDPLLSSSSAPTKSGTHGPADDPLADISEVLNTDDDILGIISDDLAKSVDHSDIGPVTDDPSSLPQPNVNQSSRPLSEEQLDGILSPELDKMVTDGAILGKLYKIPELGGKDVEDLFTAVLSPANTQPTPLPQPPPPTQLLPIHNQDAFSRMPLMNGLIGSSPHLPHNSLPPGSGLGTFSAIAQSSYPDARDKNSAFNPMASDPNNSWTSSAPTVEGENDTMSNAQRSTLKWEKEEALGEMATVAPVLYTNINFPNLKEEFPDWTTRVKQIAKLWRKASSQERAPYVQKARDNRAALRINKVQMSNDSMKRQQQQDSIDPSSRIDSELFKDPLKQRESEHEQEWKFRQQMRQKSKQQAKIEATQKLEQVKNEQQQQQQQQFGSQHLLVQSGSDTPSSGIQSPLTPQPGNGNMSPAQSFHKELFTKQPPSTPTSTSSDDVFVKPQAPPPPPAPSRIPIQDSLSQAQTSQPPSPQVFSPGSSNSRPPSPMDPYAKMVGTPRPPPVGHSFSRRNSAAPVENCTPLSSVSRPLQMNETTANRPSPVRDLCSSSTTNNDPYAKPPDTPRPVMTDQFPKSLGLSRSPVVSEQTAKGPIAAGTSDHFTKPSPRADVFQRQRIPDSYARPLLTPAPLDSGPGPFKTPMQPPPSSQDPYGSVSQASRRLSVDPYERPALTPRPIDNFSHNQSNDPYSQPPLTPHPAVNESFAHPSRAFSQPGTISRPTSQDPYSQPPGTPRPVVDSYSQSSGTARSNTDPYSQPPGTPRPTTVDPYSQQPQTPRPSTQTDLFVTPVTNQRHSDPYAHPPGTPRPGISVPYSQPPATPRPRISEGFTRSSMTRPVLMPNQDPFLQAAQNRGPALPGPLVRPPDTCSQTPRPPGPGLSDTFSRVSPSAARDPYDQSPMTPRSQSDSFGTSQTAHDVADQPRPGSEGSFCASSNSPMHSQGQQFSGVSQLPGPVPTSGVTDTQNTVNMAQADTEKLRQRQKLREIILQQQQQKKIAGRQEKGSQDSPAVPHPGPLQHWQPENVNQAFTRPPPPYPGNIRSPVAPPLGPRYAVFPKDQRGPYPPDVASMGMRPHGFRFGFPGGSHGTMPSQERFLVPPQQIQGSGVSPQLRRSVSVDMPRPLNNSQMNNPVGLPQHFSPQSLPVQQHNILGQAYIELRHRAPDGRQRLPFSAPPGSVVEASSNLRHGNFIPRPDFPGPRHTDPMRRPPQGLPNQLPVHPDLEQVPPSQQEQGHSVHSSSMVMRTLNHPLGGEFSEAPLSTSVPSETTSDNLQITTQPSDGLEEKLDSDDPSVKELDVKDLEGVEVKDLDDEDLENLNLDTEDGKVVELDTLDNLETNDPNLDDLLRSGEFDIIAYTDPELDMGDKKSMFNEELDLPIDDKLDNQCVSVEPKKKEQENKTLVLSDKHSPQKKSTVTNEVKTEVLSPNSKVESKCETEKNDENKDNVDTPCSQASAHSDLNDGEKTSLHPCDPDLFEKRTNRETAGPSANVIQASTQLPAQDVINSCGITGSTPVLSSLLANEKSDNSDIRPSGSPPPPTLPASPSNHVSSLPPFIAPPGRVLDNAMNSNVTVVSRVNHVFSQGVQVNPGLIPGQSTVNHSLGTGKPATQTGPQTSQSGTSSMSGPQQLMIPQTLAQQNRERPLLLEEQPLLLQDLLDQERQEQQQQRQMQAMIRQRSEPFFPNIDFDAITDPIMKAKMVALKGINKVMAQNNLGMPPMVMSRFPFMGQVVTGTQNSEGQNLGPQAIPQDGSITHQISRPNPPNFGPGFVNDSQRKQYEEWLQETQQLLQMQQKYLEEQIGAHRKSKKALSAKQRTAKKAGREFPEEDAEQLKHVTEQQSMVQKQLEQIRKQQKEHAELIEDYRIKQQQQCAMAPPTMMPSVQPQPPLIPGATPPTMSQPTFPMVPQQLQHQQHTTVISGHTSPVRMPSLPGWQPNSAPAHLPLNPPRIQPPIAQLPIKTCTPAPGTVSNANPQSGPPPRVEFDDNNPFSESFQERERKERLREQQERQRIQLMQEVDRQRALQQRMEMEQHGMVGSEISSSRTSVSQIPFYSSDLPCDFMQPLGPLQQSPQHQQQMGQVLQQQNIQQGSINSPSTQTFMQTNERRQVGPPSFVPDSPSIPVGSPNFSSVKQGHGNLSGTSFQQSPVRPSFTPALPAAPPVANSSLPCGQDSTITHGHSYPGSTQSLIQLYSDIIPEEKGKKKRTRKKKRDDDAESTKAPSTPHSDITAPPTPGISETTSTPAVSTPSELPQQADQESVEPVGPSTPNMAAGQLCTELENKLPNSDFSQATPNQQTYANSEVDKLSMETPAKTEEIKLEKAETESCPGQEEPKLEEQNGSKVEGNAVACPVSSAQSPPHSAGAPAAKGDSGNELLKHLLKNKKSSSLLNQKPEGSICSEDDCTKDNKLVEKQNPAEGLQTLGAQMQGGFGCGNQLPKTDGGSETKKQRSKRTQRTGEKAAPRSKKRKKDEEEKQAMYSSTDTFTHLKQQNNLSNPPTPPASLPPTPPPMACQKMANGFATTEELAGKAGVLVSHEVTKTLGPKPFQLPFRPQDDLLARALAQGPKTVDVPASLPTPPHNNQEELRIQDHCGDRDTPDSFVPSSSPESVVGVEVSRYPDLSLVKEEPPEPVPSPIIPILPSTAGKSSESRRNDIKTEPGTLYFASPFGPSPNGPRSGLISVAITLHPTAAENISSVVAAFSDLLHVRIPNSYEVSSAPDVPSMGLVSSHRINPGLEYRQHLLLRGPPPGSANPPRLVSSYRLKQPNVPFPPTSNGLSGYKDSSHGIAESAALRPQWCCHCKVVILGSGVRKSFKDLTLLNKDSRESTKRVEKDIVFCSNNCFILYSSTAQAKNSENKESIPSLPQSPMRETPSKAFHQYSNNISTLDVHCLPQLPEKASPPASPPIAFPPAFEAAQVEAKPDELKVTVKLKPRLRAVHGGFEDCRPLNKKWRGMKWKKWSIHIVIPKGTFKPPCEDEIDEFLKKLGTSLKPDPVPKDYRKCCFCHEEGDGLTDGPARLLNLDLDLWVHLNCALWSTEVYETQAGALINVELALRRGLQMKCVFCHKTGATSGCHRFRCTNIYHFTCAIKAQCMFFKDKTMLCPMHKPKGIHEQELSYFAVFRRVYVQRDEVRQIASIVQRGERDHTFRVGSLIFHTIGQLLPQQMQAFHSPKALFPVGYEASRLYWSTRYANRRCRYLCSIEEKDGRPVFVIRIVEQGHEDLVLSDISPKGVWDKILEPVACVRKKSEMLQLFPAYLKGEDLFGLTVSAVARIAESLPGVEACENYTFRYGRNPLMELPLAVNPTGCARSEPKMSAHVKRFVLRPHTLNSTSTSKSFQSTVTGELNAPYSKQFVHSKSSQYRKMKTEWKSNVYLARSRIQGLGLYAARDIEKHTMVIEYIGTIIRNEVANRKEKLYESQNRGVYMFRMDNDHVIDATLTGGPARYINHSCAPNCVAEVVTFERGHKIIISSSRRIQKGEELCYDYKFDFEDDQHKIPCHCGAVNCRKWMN

[4] = biological target: High affinity nerve growth factor receptor (Homo sapiens, UniProt P04629); assay: Selectivity interaction (KinomeScan (DiscoverX)) EUB0000695a NTRK1; conditions: at 100 nM
[5] = biological target: Casein kinase I isoform gamma-2 (Homo sapiens) (UniProt P78368); conditions: at 10 µM
[6] = biological target: T1, Serine/threonine-protein kinase DCLK3 (Homo sapiens) (UniProt Q9C098); assay: Selectivity interaction (KinomeScan (DiscoverX)) EUB0000655a DCLK3; conditions: at 10 µM
T1 sequence (whole entry): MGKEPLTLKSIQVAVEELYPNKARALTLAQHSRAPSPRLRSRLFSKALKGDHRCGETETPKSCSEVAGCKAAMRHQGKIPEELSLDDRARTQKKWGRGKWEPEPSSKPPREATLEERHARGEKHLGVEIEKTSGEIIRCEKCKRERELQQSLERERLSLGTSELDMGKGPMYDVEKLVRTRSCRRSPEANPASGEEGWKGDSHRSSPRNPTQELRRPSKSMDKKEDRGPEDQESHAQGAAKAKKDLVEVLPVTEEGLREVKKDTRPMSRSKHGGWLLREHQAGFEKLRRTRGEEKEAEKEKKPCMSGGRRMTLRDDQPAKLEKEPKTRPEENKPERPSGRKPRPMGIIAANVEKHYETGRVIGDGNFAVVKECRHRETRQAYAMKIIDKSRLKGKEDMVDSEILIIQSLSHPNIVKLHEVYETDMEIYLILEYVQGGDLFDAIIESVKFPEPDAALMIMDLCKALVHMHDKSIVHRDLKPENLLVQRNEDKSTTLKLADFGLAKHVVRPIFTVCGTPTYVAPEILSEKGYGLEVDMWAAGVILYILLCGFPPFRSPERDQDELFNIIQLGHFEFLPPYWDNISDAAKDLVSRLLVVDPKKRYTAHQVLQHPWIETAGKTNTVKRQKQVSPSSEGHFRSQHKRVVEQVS

[7] = biological target: Serine/threonine-protein kinase 38-like (Homo sapiens) (UniProt Q9Y2H1); assay: Selectivity interaction (KinomeScan (DiscoverX)) EUB0000655a STK38L; conditions: at 10 µM
[8] = biological target: T2, Ephrin type-B receptor 3 (Homo sapiens) (UniProt P54753); assay: Selectivity interaction (KinomeScan (DiscoverX)) EUB0001079a EPHB3; conditions: at 1 µM
T2 sequence (whole entry): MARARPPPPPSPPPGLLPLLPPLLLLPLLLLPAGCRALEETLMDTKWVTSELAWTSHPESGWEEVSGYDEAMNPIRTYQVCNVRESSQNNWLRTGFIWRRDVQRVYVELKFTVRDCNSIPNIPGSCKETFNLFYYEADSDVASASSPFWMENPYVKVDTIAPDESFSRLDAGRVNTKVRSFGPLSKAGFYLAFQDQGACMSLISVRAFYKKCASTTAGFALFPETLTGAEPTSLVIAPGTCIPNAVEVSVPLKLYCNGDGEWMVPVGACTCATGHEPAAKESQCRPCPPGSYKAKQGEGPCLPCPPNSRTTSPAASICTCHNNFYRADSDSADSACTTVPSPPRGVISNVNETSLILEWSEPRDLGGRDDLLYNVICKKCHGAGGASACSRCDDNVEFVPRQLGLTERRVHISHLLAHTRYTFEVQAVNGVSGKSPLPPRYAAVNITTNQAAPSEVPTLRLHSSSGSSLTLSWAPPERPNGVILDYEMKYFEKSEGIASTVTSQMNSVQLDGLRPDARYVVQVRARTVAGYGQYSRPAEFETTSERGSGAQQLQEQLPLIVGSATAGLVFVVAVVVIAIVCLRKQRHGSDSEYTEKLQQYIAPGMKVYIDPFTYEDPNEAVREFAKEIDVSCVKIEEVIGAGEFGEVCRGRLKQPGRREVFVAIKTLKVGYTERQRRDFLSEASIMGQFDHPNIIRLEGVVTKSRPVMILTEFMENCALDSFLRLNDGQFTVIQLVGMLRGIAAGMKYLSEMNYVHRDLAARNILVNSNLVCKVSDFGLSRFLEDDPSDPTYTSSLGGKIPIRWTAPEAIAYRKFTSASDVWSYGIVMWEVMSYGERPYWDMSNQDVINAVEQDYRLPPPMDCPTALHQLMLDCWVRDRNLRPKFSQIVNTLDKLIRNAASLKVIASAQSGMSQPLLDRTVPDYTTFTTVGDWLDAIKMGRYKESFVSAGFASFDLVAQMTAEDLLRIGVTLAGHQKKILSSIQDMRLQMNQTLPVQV

[9] = biological target: T3, Dual specificity mitogen-activated protein kinase kinase 6 (Homo sapiens) (UniProt P52564); conditions: at 10 µM
T3 sequence (whole entry): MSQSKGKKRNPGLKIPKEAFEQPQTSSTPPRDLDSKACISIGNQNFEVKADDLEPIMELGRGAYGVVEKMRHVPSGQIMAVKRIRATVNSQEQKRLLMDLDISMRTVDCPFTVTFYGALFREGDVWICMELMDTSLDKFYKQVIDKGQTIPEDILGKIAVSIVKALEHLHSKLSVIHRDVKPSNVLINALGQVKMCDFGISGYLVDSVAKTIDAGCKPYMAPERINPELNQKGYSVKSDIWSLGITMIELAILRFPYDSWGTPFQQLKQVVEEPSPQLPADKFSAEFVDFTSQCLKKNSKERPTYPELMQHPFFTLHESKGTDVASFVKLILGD

[10] = biological target: MAP kinase-interacting serine/threonine-protein kinase 1 (Homo sapiens) (UniProt Q9BUB5); conditions: at 10 µM
Aurora kinase B = Aurora kinase B (Homo sapiens, UniProt Q96GD4); assay: Selectivity interaction (KinomeScan (DiscoverX)) EUB0001619a AURKB; conditions: at 1 µM

% of inhibition [1]: 24%
Structure (SMILES): Cc1ccc(-c2ccc3c(ccc4sc5c(c43)NC[C@@H](C)NC5=O)n2)cn1

% of inhibition [2]: 8%
Structure (SMILES): CC[C@@H]1[C@H](F)C(=O)N[C@@H]1COc1nccc2cc(C(N)=O)c(OC)cc12 [ZIMLOVISERTIB]

Structure (SMILES): Cc1cc(C)cc([C@@H]2c3cc(C)ccc3NC(=O)CN2C(=O)c2ccc(Br)s2)c1
% of activity ([3]; at 1 µM): 104%
% of activity ([3]; at 10 µM): 97%

Structure (SMILES): Cc1cc(F)c(C(=O)Nc2cccc(-c3nncn3C(C)C)n2)cc1-n1cnc(C2CC2)c1
% of control [4]: 79%

Structure (SMILES): COCC(=O)NC/C=C/c1ccc2ncnc(Nc3ccc(Oc4ccc(C)nc4)c(C)c3)c2c1 [CP-724714]
% of control [5]: 100%

Structure (SMILES): CN(C)CCOc1ccc(-c2nc(-c3ccncc3)c(-c3ccc4c(c3)CC/C4=N\O)[nH]2)cc1
% of control [6]: 89%
% of control [7]: 100%

Structure (SMILES): Nc1cnc(N2CCc3cc(S(=O)(=O)Nc4c(F)cc(Cl)cc4F)cc(N4CCCC4=O)c32)nc1 [TP-020n]
% of control [8]: 100%

Structure (SMILES): Cc1cc([C@@H](C)Nc2ccccc2C(=O)O)c2nc(N3CCOCC3)cc(=O)n2c1 [AZD-6482]
% of control [9]: 92%
% of control [10]: 92%

Structure (SMILES): N#Cc1cccc(-c2c[nH]c3ncnc(N4CCOCC4)c23)c1
% of control (Aurora kinase B): 26%

Reference: ChEMBL document CHEMBL5465560, “Selectivity Literature for EUbOPEN Chemogenomic Library” (2024)
